Assay results taken from paper PMC10892423 (Pharmaceutics, 2024).
Converted amounts (≈) assume the structure as drawn.

System: MBL-producing P. aeruginosa clinical isolates
Assay: MIC by broth microdilution (CLSI)
Assay type: cell-based, Pseudomonas aeruginosa
Details: Pseudomonas aeruginosa
Experimental: The DMSO stock solutions of the test compounds were serially diluted to the desired concentrations in CAMHB. Then, 10 μL of the bacterial suspension (5 × 10^5 colony forming units (CFU)/mL) was combined with 200 μL of DMSO stock solutions of the test compounds in 96-well microtiter plates (1% DMSO, final). After the incubation of the plate at 37 °C for 24 h, bacterial growth was visibly evaluated by monitoring the turbidity of the resulting suspension, and the MICs were determined as the lowest concentrations of the test compounds that inhibited the visible growth of the bacteria.

Row | SMILES | MIC (PA-001, blaNDM) | MIC (PA-002, blaIMP) | MIC (PA-007, blaNDM) | MIC (PA-008, blaNDM) | MIC (PA-011, blaNDM) | MIC (PA-012, blaNDM) | MIC (PA-016, blaIMP) | MIC (PA-017, blaNDM) | MIC (PA-019, blaNDM) | MIC (PA-020, blaNDM) | MIC (PA-023, blaNDM) | MIC (PA-025, blaNDM) | MIC (PA-027, blaIMP) | MIC (PA-028, blaNDM) | MIC (PA-029, blaIMP) | MIC (PA-030, blaIMP) | MIC (PA-034, blaNDM) | MIC (PA-036, blaNDM) | MIC (PA-038, blaNDM) | MIC (PA-039, blaNDM) | other results
1 | NCC[C@H](O)C(=O)N[C@@H]1C[C@H](N)[C@@H](O[C@H]2O[C@H](CN)[C@@H](O)[C@H](O)[C@H]2O)[C@H](O)[C@H]1O[C@H]1O[C@H](CO)[C@@H](O)[C@H](N)[C@H]1O [AMK, amikacin] | > 32 µg/mL | > 32 µg/mL | > 32 µg/mL | > 32 µg/mL | > 32 µg/mL | ≤ 4 µg/mL | > 32 µg/mL | > 32 µg/mL | > 32 µg/mL | > 32 µg/mL | > 32 µg/mL | > 32 µg/mL | > 32 µg/mL | > 32 µg/mL | > 32 µg/mL | > 32 µg/mL | > 32 µg/mL | > 32 µg/mL | > 32 µg/mL | ≤ 4 µg/mL | MIC (PA-044, blaNDM): > 32 µg/mL
2 | C[C@@H](O)[C@H]1C(=O)N2C(C(=O)O)=C(S[C@@H]3CN[C@H](C(=O)N(C)C)C3)[C@H](C)[C@H]12 [MEM, meropenem] | > 32 µg/mL | > 32 µg/mL | > 32 µg/mL | > 32 µg/mL | > 32 µg/mL | > 32 µg/mL | > 32 µg/mL | > 32 µg/mL | > 32 µg/mL | > 32 µg/mL | > 32 µg/mL | > 32 µg/mL | > 32 µg/mL | > 32 µg/mL | > 32 µg/mL | > 32 µg/mL | > 32 µg/mL | > 32 µg/mL | > 32 µg/mL | > 32 µg/mL | MIC (PA-044, blaNDM): > 32 µg/mL
3 | C[C@@H](O)[C@H]1C(=O)N2C(C(=O)O)=C(SCCN=CN)C[C@H]12 [IPM, imipenem] | > 8 µg/mL | > 8 µg/mL | > 8 µg/mL | > 8 µg/mL | > 8 µg/mL | > 8 µg/mL | > 8 µg/mL | > 8 µg/mL | > 8 µg/mL | > 8 µg/mL | > 8 µg/mL | > 8 µg/mL | > 8 µg/mL | > 8 µg/mL | > 8 µg/mL | > 8 µg/mL | > 8 µg/mL | > 8 µg/mL | > 8 µg/mL | > 8 µg/mL | MIC (PA-044, blaNDM): > 8 µg/mL
4 | CC(C)(O/N=C(\C(=O)N[C@@H]1C(=O)N2C(C(=O)[O-])=C(C[n+]3ccccc3)CS[C@H]12)c1csc(N)n1)C(=O)O [CAZ, ceftazidime] | > 16 µg/mL | > 16 µg/mL | > 16 µg/mL | > 16 µg/mL | > 16 µg/mL | > 16 µg/mL | > 16 µg/mL | > 16 µg/mL | > 16 µg/mL | > 16 µg/mL | > 16 µg/mL | > 16 µg/mL | > 16 µg/mL | > 16 µg/mL | > 16 µg/mL | > 16 µg/mL | > 16 µg/mL | > 16 µg/mL | > 16 µg/mL | > 16 µg/mL | MIC (PA-044, blaNDM): > 16 µg/mL
5 | CNC(C)C1CCC(N)C(OC2C(N)CC(N)C(OC3OCC(C)(O)C(NC)C3O)C2O)O1 (stereo not drawn) [GEN, gentamicin] | > 8 µg/mL | > 8 µg/mL | > 8 µg/mL | > 8 µg/mL | > 8 µg/mL | 8 µg/mL (≈ 16.8 µM) | > 8 µg/mL | > 8 µg/mL | > 8 µg/mL | > 8 µg/mL | > 8 µg/mL | > 8 µg/mL | > 8 µg/mL | > 8 µg/mL | > 8 µg/mL | > 8 µg/mL | > 8 µg/mL | > 8 µg/mL | > 8 µg/mL | ≤ 2 µg/mL | MIC (PA-044, blaNDM): > 8 µg/mL
